In the supplement of paper PMC11061612:

Columns and labels:
786-0 (Kidney Carcinoma) = assay: Bliss excess, mean over the matrix (fraction); higher = more synergy
How it was run: (§1)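 After 24 hours at 37°C and 5% CO2 in 1536-well plates, cells in DMEM/F12 or RPMI plus 10% FBS received two-drug dose matrices for 72 hours. Viability came from CellTiter-Glo 2.0 luminescence and was scaled as inhibition, anchored at 0 by vehicle wells and at 1 by blank wells. Combination Emax is taken as the second-highest inhibition in the matrix, and Bliss excess as the observed combination effect less EA + EB − EA·EB, with EA and EB the single-agent effects.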

[1] = test system: AsPC-1 (Pancreatic Carcinoma); assay: as above
How it was run: as §1

CHL-1 (Melanoma) = assay: as above
How it was run: as §1

[2] = test system: COLO-684 (Endometrial Carcinoma); assay: as above
How it was run: as §1

ES-2 (Ovarian Carcinoma) = assay: as above
How it was run: as §1

[3] = test system: FLO-1 (Esophageal Adenocarcinoma); assay: as above
How it was run: as §1

[4] = test system: HTC-C3 (Thyroid Gland Carcinoma); assay: as above
How it was run: as §1

[5] = test system: JHH-1 (Hepatocellular Carcinoma); assay: as above
How it was run: as §1

KYM-1 (Rhabdomyosarcoma) = assay: as above
How it was run: as §1

[6] = test system: KYSE-70 (Esophageal Squamous Cell Carcinoma); assay: as above
How it was run: as §1

[7] = test system: NCI-H1563 (Lung Adenocarcinoma); assay: as above
How it was run: as §1

[8] = test system: NCI-H810 (Non-Small Cell Lung Carcinoma); assay: as above
How it was run: as §1

[9] = test system: NKM-1 (Acute Myeloid Leukemia); assay: as above
How it was run: as §1

[10] = test system: OCI-AML5 (Acute Myeloid Leukemia); assay: as above
How it was run: as §1

[11] = test system: OVTOKO (Ovarian Carcinoma); assay: as above
How it was run: as §1

[12] = test system: RL95-2 (Endometrial Carcinoma); assay: as above
How it was run: as §1

[13] = test system: RPMI-8866 (Chronic Myelogenous Leukemia); assay: as above
How it was run: as §1

[14] = test system: SJRH30 (Rhabdomyosarcoma); assay: as above
How it was run: as §1

[15] = test system: CML-T1 (Chronic Myelogenous Leukemia); assay: combination Emax (second highest fraction inhibited in the dose matrix, 72 h); higher = more inhibition; extreme values may be limits of the assay
How it was run: as §1

[16] = test system: COLO-684 (Endometrial Carcinoma); assay: as above
How it was run: as §1
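For Bliss excess, mean over the matrix in this document: after 72 h of two-drug dosing.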

Compound | Bliss excess (786-0 (Kidney Carcinoma)) | Bliss excess [1] | Bliss excess (CHL-1 (Melanoma)) | Bliss excess [2] | Bliss excess (ES-2 (Ovarian Carcinoma)) | Bliss excess [3] | Bliss excess [4] | Bliss excess [5] | Bliss excess (KYM-1 (Rhabdomyosarcoma)) | Bliss excess [6] | Bliss excess [7] | Bliss excess [8] | Bliss excess [9] | Bliss excess [10] | Bliss excess [11] | Bliss excess [12] | Bliss excess [13] | Bliss excess [14] | combination Emax [15] | combination Emax [16]
Cc1c2c(nn1C)CSCc1cc(n(C)n1)CSc1cc(c3ccccc3c1)OCCCc1c(C(=O)O)n(C)c3c-2c(Cl)ccc13 [AZD5991] + Cc1cc2ncnn2cc1Nc1ncc2c(n1)n(C1CCOCC1)c(=O)n2C [AZD7648] (first compound max 1 µM, 7x7, partner max 10 µM) | -0.0341 | -0.0517 | 0.0317 | 0.0076 | -0.0545 | -0.0408 | -0.0558 | -0.0585 | 0.0136 | 0.0024 | -0.0185 | -0.0484 | -0.0265 | 0.0059 | -0.0238 | -0.0033 | -0.0497 | -0.0214 | 0.332 | 0.315
NC1(C(=O)N[C@@H](CCO)c2ccc(Cl)cc2)CCN(c2ncnc3[nH]ccc23)CC1 [Capivasertib] + Cn1cnc2c(F)c(Nc3ccc(Br)cc3Cl)c(C(=O)NOCCO)cc21 [Selumetinib] (first compound max 10 µM, 7x7, partner max 10 µM) | 0.0614 | -0.039 | 0.0588 | -0.0343 | 0.0171 | 0.0307 | 0.0677 | -0.0896 | -0.0072 | -0.0073 | -0.119 | -0.014 | 0.142 | 0.0645 | -0.0566 | 0.0367 | 0.0602 | 0.0297 | 0.828 | 0.63
Cc1c2c(nn1C)CSCc1cc(n(C)n1)CSc1cc(c3ccccc3c1)OCCCc1c(C(=O)O)n(C)c3c-2c(Cl)ccc13 [AZD5991] + CN(C)CCCOc1ccc(-c2ccc3ncc4c(c3c2)n(C2CCOCC2)c(=O)n4C)cn1 [AZD0156] (first compound max 1 µM, 7x7, partner max 1 µM) | -0.0109 | -0.0137 | 0.0218 | -0.0546 | 0.0018 | -0.0135 | -0.0082 | 0.0048 | 0.0046 | 0.0286 | -0.009 | -0.0034 | -0.152 | 0.0075 | 0.0042 | -0.0252 | -0.026 | 0.0026 | 0.223 | 0.332
COc1nnc2ccc(N3CCC(c4ccc(OCCN5CCN(C)C(=O)[C@H]5C)cc4)CC3)nn12 [AZD5153] + C=CCn1c(=O)c2cnc(Nc3ccc(N4CCN(C)CC4)cc3)nc2n1-c1cccc(C(C)(C)O)n1 [AZD1775] (first compound max 1 µM, partner max 1 µM) | -0.0163 | 0.0167 | -0.0434 | -0.0852 | -0.0435 | 0.0001 | -0.033 | 0.0173 | -0.0249 | -0.0519 | 0.0474 | -0.0578 | -0.124 | -0.0106 | 0.0095 | 0.0344 | -0.0864 | -0.019 | 0.945 | 0.744
Cc1cc2ncnn2cc1Nc1ncc2c(n1)n(C1CCOCC1)c(=O)n2C [AZD7648] + CN(C)CCCOc1ccc(-c2ccc3ncc4c(c3c2)n(C2CCOCC2)c(=O)n4C)cn1 [AZD0156] (first compound max 10 µM, 7x7, partner max 1 µM) | 0.0224 | -0.0291 | 0.0169 | -0.0324 | 0.029 | -0.0665 | 0.0024 | 0.0063 | 0.0278 | 0.0213 | -0.0164 | 0.0125 | -0.0039 | 0.0276 | -0.0537 | 0.0161 | -0.0363 | 0.0105 | 0.388 | 0.28
CCN(CCO)CCCOc1ccc2c(Nc3cc(CC(=O)Nc4cccc(F)c4)[nH]n3)ncnc2c1 [AZD2811] + C[C@@H]1COCCN1C2=NC(=NC(=C2)C3(CC3)[S@](=N)(=O)C)C4=C5C=CNC5=NC=C4 [AZD6738] (first compound max 1 µM, 7x7, partner max 10 µM) | -0.0465 | -0.0164 | -0.0344 | -0.0913 | -0.0445 | -0.0611 | -0.0273 | -0.0574 | -0.0214 | -0.0383 | -0.0114 | -0.0764 | 0.0425 | -0.0299 | -0.0305 | -0.0873 | -0.0271 | -0.0079 | 0.934 | 0.748
C[C@@H]1COCCN1c1cc(C2([S@](C)(=N)=O)CC2)nc(-c2ccnc3[nH]ccc23)n1 [AZD6738] + O=C(c1cc(Cc2n[nH]c(=O)c3ccccc23)ccc1F)N1CCN(C(=O)C2CC2)CC1 [Olaparib] (first compound max 10 µM, 7x7, partner max 10 µM) | 0.0473 | -0.027 | -0.0498 | -0.109 | -0.0136 | -0.0348 | 0.0226 | -0.0206 | 0.0088 | 0.021 | -0.0116 | -0.008 | -0.0366 | -0.0071 | 0.0182 | 0.0105 | -0.0143 | -0.0205 | 0.966 | 0.685
COc1cc2ncnc(Nc3ccc(F)c(Cl)c3)c2cc1OCCCN1CCOCC1 [Gefitinib] + CC(C)n1c(=O)n(C)c2cnc3cc(F)c(-c4ccc(OCCCN5CCCCC5)nc4)cc3c21 [AZD1390] (first compound max 10 µM, 7x7, partner max 0.3 µM) | -0.0652 | -0.0975 | -0.0472 | -0.0395 | -0.0989 | -0.0696 | -0.0976 | -0.0772 | -0.0515 | -0.038 | -0.0757 | -0.0863 | -0.0581 | -0.051 | -0.0672 | -0.0454 | -0.0857 | -0.0407 | 0.148 | 0.0995
NC1(C(=O)N[C@@H](CCO)c2ccc(Cl)cc2)CCN(c2ncnc3[nH]ccc23)CC1 [Capivasertib] + COc1nnc2ccc(N3CCC(c4ccc(OCCN5CCN(C)C(=O)[C@H]5C)cc4)CC3)nn12 [AZD5153] (first compound max 10 µM, 7x7, partner max 1 µM) | 0.0014 | -0.0273 | 0.0143 | -0.0133 | 0.0199 | 0.0115 | 0.0265 | -0.0072 | -0.0306 | -0.0109 | -0.0218 | 0.0078 | -0.0157 | 0.0552 | 0.0497 | -0.002 | -0.0511 | 0.0117 | 0.703 | 0.782
COc1nnc2ccc(N3CCC(c4ccc(OCCN5CCN(C)C(=O)[C@H]5C)cc4)CC3)nn12 [AZD5153] + CCN(CCO)CCCOc1ccc2c(Nc3cc(CC(=O)Nc4cccc(F)c4)[nH]n3)ncnc2c1 [AZD2811] (first compound max 1 µM, 7x7, partner max 1 µM) | -0.0274 | -0.0427 | 0.0413 | 0.0152 | 0.0089 | -0.0165 | -0.05 | -0.0292 | -0.0682 | -0.0265 | -0.0508 | -0.0068 | -0.0201 | -0.0282 | -0.0423 | -0.154 | 0.0254 | 0.109 | 0.684 | 0.553
C[C@@H](c1ccc2nccn2c1)n1nnc2ncc(-c3cnn(C)c3)nc21 [Savolitinib] + CC1(C)CCC(CN2CCN(c3ccc(C(=O)NS(=O)(=O)c4ccc(NCC5CCOCC5)c([N+](=O)[O-])c4)c(Oc4cnc5[nH]ccc5c4)c3)CC2)=C(c2ccc(Cl)cc2)C1 [Venetoclax] (first compound max 1 µM, 7x7, partner max 1 µM) | -0.0848 | -0.0743 | -0.0511 | -0.0458 | -0.0324 | -0.0752 | -0.053 | -0.0529 | -0.0133 | -0.0504 | -0.0691 | -0.0517 | 0.0653 | -0.031 | -0.0675 | -0.0481 | -0.0452 | -0.0577 | 0.279 | 0.174
Cc1c2c(nn1C)CSCc1cc(n(C)n1)CSc1cc(c3ccccc3c1)OCCCc1c(C(=O)O)n(C)c3c-2c(Cl)ccc13 [AZD5991] + C[C@@H](Nc1cc(F)cc(F)c1)c1cc(C(=O)N(C)C)cc2c(=O)cc(N3CCOCC3)oc12 [AZD8186] (first compound max 1 µM, 7x7, partner max 3 µM) | 0.0005 | -0.0414 | 0.0292 | -0.0292 | -0.0108 | -0.0486 | -0.014 | 0.0056 | 0.0291 | -0.0136 | 0.0003 | -0.034 | -0.0247 | -0.0146 | -0.0196 | -0.0802 | -0.041 | -0.0138 | 0.103 | 0.42
CC1(C)CCC(CN2CCN(c3ccc(C(=O)NS(=O)(=O)c4ccc(NCC5CCOCC5)c([N+](=O)[O-])c4)c(Oc4cnc5[nH]ccc5c4)c3)CC2)=C(c2ccc(Cl)cc2)C1 [Venetoclax] + C[C@@H](Nc1cc(F)cc(F)c1)c1cc(C(=O)N(C)C)cc2c(=O)cc(N3CCOCC3)oc12 [AZD8186] (first compound max 1 µM, 7x7, partner max 3 µM) | -0.0095 | -0.0817 | -0.0397 | -0.261 | -0.0199 | -0.0712 | -0.0236 | -0.0413 | -0.0138 | -0.0239 | 0.0389 | -0.0489 | 0.0937 | 0.0529 | -0.0535 | -0.0189 | 0.0151 | -0.0248 | 0.967 | 0.529
CN(CCO)CC[C@H](CSc1ccccc1)Nc1ccc(S(=O)(=O)NC(=O)c2ccc(N3CCC([C@@H](O)c4ccccc4-c4ccc(Cl)cc4)CC3)cc2)cc1S(=O)(=O)C(F)(F)F [AZD4320] + C=CCn1c(=O)c2cnc(Nc3ccc(N4CCN(C)CC4)cc3)nc2n1-c1cccc(C(C)(C)O)n1 [AZD1775] (first compound max 1 µM, partner max 1 µM) | -0.0685 | 0.047 | 0.0509 | -0.0301 | 0.0065 | 0.0293 | 0.08 | 0.136 | 0.0515 | -0.0011 | -0.0024 | 0.0105 | 0.035 | 0.0099 | 0.0002 | 0.006 | 0.0402 | 0.0076 | 1 | 0.763
